Experimental findings from ChEMBL document CHEMBL4414634, “Alternatone A, an Unusual Perylenequinone-Related Compound from a Soft-Coral-Derived Strain of the Fungus Alternaria alternata” (J Nat Prod, 2019) are described below.

Holding throughout (format): functional, cell-based
The test system of test [1] is HeLa. Briefly: Antiproliferative activity against human HeLa cells assessed as reduction in cell viability by MTT assay.
In test [2] the test system is A549. Briefly: Antiproliferative activity against human A549 cells assessed as reduction in cell viability by SRB assay. A general note: The SRB assay estimates cell density from bound dye.
Test [3] has as its system HCT-116. Briefly: Antiproliferative activity against human HCT116 cells assessed as reduction in cell viability by SRB assay.

Structures are written as SMILES. Active and inactive are the calls of the source. No cut-off for these calls is given here.

As to `O=C1C[C@@H]2[C@@H]3C(=O)c4c(O)cccc4[C@@H]([C@@H]3O)[C@@H]2c2cccc(O)c21`, the result in test [1], in test [2] and in test [3] was inactive.
Turning to `O=C1C[C@@H](O)[C@@H]2c3ccc(O)c4c3[C@@H](c3ccc(O)c1c32)[C@H](O)CC4=O`, the result in test [1], in test [2] and in test [3] was inactive.
As a reminder, the IC50 is the concentration that gives 50% inhibition. `O=C1C[C@H](O)[C@@H]2c3c(ccc(O)c31)-c1ccc(O)c3c1[C@@]2(O)C=CC3=O`: the IC50 in test [1] came to 3100 nM; in test [2], 2600 nM; in test [3] it was 2400 nM.
On to `O=C1C[C@H](O)[C@@H]2c3c(ccc(O)c31)-c1ccc(O)c3c1[C@@]2(O)CCC3=O`, for which the outcome in test [1], in test [2] and in test [3] was inactive.
